Type in all cases: cell-based
In one experiment the test system is 1A6. The experiment is described as follows: MTT cell proliferation assay, 1A6. Conditions: 1A6 cell line (urinary bladder). The protocol: (§1) The antiviral and antitumor activities of the compounds of the invention were evaluated by a cellular proliferation assay. The MTT [3-(4,5-dimethylthiazol-2-yl)-2,5-diphenyltetrazolium bromide] assay, first described by Mosmann (Mosmann T., “Rapid colorimetric assay for cellular growth and survival: application to proliferation and cytotoxicity assays,” J. Immunol. Methods 1983 Dec. 16; 65(1-2):55-63, and incorporated by reference in its entirety) is based on the ability of a mitochondrial dehydrogenase enzyme from viable cells to cleave the tetrazolium rings of the pale yellow MTT. The cleavage reaction form a dark blue formazan crystals which is largely impermeable to cell membranes and accumulation within healthy cells. Solubilisation of the cells by the addition of a detergent liberates and solubilizes the crystals. The number of surviving cells is directly proportional to the level of the formazan product created. The color can then be quantified using a simple colorimetric assay. The results can be read on a multiwell scanning spectrophotometer (ELISA reader).
(§2) In Tables 1 and 2, IC50 values are presented for various cell lines in micromolar units (μm), “Gemci” is Gemcitabine, and “5-FU” is 5-fluorouracil.

For the next experiment, the system named is 786-O. The experiment is described as follows: MTT cell proliferation assay, 786-O. Conditions: Homo sapiens, 786-0; 786-O cell line (kidney). The procedure:
as §1, §2

The next experiment has as its system BxPC-3. As to the kind of experiment: MTT cell proliferation assay, BxPC-3. The note with it: Homo sapiens; BxPC-3 cell line (pancreas). The procedure: as §1, §2
(Formazan colour is commonly taken as a measure of viable cells.)

A further experiment relates to DLD-1. The experiment is described as follows: MTT cell proliferation assay, DLD-1. The note with it: Homo sapiens; DLD-1 cell line (colon). The procedure:
as §1, §2

In a further experiment the test system is HCC1143. As to the kind of experiment: MTT cell proliferation assay, HCC1143. The note with it: Homo sapiens; HCC1143 cell line (mammary gland; breast). The procedure: as §1, §2
For a further experiment, the system named is HCT 116. As to the kind of experiment: MTT cell proliferation assay, HCT 116. Conditions: Homo sapiens; HCT 116 cell line (colon). The procedure: as §1, §2
For another experiment, the system named is HL-60. The experiment is described as follows: MTT cell proliferation assay, HL-60. The note with it: Homo sapiens; HL-60 cell line (acute promyelocytic leukemia). The procedure:
as §1, §2

A further experiment concerns MCF7. The experiment is described as follows: MTT cell proliferation assay, MCF7. Conditions: Homo sapiens; MCF7 cell line (mammary gland; breast). The procedure:
as §1, §2

A further experiment relates to MOLT-4. The experiment is described as follows: MTT cell proliferation assay, MOLT-4. Conditions: Homo sapiens, MOLT-4, MOLT-4 cell line (acute lymphoblastic leukemia). The protocol: as §1, §2
In a further experiment the test system is NCI H1395. As to the kind of experiment: MTT cell proliferation assay, NCI H1395. The note with it: Homo sapiens, NCI-H1395, NCI H1395 cell line (lung). The procedure: as §1, §2
A further experiment relates to NCI H2052. As to the kind of experiment: MTT cell proliferation assay, NCI H2052. Conditions: Homo sapiens; NCI H2052 cell line (tumor stage 4 derived from pleural effusion). The protocol:
as §1, §2

The subject of another experiment is OVCAR3. As to the kind of experiment: MTT cell proliferation assay, OVCAR3. Conditions: Homo sapiens, OVCAR-3; OVCAR3 cell line (ovary). The protocol:
as §1, §2

Another experiment deals with PFSK-1. The experiment is described as follows: MTT cell proliferation assay, PFSK-1. Conditions: Homo sapiens; PFSK-1 cell line (brain). The procedure: as §1, §2
For a further experiment, the system named is ZR-75-1. As to the kind of experiment: MTT cell proliferation assay, ZR-75-1. The note with it: Homo sapiens; ZR-75-1 cell line (mammary gland; breast). The protocol: as §1, §2
In another experiment the test system is Colo 829. The experiment is described as follows: MTT cell proliferation assay, Colo 829. The note with it: Homo sapiens; Colo 829 cell line (skin). The procedure: as §1, §2
Another experiment has as its system 22Rv1. The experiment is described as follows: MTT cell proliferation assay, 22Rv1. Conditions: Homo sapiens; 22Rv1 cell line (prostate). The procedure: as §1, §2

`CC12C(=O)OC[C@H]1O[C@@H](n1ccc(N)nc1=O)C2O` (mixture of isomers) [LCB-1079, 4-amino-1-((2R,3R,3αR,6αS)-3-hydroxy-3α-methyl-4-oxohexahydrofuro[3,4-β]furan-2-yl)pyrimidin-2(1H)-one]: the IC50 stood at 350 µM with 1A6; 460 µM in the experiment with 786-O; 160 µM in the experiment with BxPC-3; 440 µM with DLD-1; 480 µM with HCC1143; 410 µM in the experiment with HCT 116. For the same compound, the half-inhibitory concentration (IC50) in the experiment on HL-60 was 250 µM; with MCF7 it was 280 µM; in the experiment on MOLT-4, 260 µM; in the experiment on NCI H1395, over 500 µM; with NCI H2052 it was 310 µM; in the experiment on OVCAR3 it was 280 µM. Also, the IC50 worked out at 130 µM in the experiment on PFSK-1 and 380 µM with ZR-75-1.

With `CC12C(=O)OC[C@H]1O[C@@H](n1cc(F)c(N)nc1=O)C2O` (mixture of isomers) [LCB-1080, 4-amino-5-fluoro-1-((2R,3R,3αR,6αS)-3-hydroxy-3α-methyl-4-oxohexahydrofuro[3,4-β]furan-2-yl)pyrimidin-2(1H)-one], the IC50 in the experiment on 1A6, with 786-O, in the experiment with Colo 829, in the experiment on DLD-1, with HCC1143 and in the experiment on HL-60 was over 500 µM each time. The IC50 with MCF7, in the experiment with MOLT-4, in the experiment with NCI H1395, in the experiment on NCI H2052, in the experiment on PFSK-1 and in the experiment with ZR-75-1 was over 500 µM throughout.

As to `CC1(CO)C(O)C(n2cnc3c(N)nc(Cl)nc32)O[C@@H]1CO` (stereo in doubt) [LCB-1091, ((2S,3R,4R,5R)-5-(6-amino-2-chloro-9H-purin-9-yl)-4-hydroxy-3-methyltetrahydrofuran-2,3-diyl)dimethanol], the half-maximal inhibitory concentration (IC50) in the experiment with 1A6, in the experiment on 22Rv1, in the experiment on 786-O, in the experiment with BxPC-3, in the experiment on Colo 829 and with DLD-1 was over 500 µM each time. In addition, the half-maximal inhibitory concentration (IC50) in the experiment on HCC1143, in the experiment with HCT 116, in the experiment with HL-60, with MCF7, in the experiment with MOLT-4 and in the experiment with NCI H1395 was over 500 µM in each case. Moreover, the IC50 in the experiment with NCI H2052, with OVCAR3, in the experiment on PFSK-1 and with ZR-75-1 was over 500 µM in each case.

In the case of `CC1(CO)C(O)[C@H](n2cnc3c(=O)nc(N)[nH]c(=O)c32)O[C@@H]1CO` (stereo in doubt) [LCB-1097, 6-amino-1-((2R,3R,4S,5S)-3-hydroxy-4,5-bis(hydroxymethyl)-4-methyltetrahydrofuran-2-yl)imidazo[4,5-e][1,3]diazepine-4,8(1H,5H)-dione], the IC50 with 1A6, in the experiment on 22Rv1, with 786-O, in the experiment with BxPC-3, in the experiment on Colo 829 and in the experiment on DLD-1 was over 500 µM in each case. The IC50 in the experiment with HCC1143, in the experiment on HCT 116, with HL-60, in the experiment on MCF7, with MOLT-4 and in the experiment on NCI H1395 was over 500 µM each time. The IC50 in the experiment on NCI H2052 is over 500 µM; in the experiment with OVCAR3, over 500 µM; in the experiment with PFSK-1, over 500 µM; in the experiment with ZR-75-1 it was 210 µM.

As to `O=c1[nH]cc(F)c(=O)[nH]1` [5-FU, 5-fluorouracil, reference compound], the IC50 with 1A6 was 300 µM; in the experiment on 22Rv1 it was 50 µM; in the experiment on 786-O it was 110 µM; with BxPC-3 it was 220 µM; in the experiment with Colo 829, 170 µM; with DLD-1 it was 470 µM. Moreover, the 50% inhibitory concentration (IC50) in the experiment with HCC1143 was 340 µM; with HCT 116 it was 25 µM; with HL-60, 25 µM; in the experiment with MCF7, 40 µM; in the experiment with MOLT-4 it was 20 µM; with NCI H1395, over 500 µM. Moreover, the IC50 was over 500 µM in the experiment with NCI H2052, 35 µM with OVCAR3, 460 µM with PFSK-1 and over 500 µM in the experiment with ZR-75-1.

`Nc1ccn([C@@H]2O[C@H](CO)[C@@H](O)C2(F)F)c(=O)n1` [Gemci., Gemcitabine, reference compound]: the IC50 in the experiment with 1A6 is 5 µM; in the experiment with 22Rv1, over 500 µM; in the experiment with 786-O, over 500 µM; in the experiment with BxPC-3 it was under 0.5 µM; with Colo 829 it was under 0.5 µM; with DLD-1, over 500 µM. Moreover, the 50% inhibitory concentration (IC50) with HCC1143 is 400 µM; in the experiment with HCT 116, under 0.5 µM; with HL-60, under 0.5 µM; with MCF7, over 500 µM; with MOLT-4, under 0.5 µM; with NCI H1395, under 0.5 µM. The IC50 was over 500 µM in the experiment on NCI H2052, 5 µM in the experiment on OVCAR3, over 500 µM with PFSK-1 and over 500 µM with ZR-75-1.

Take `CC1(CO)C(O)C(n2cc(F)c(N)nc2=O)O[C@@H]1CO` (stereo partly drawn) [LCB-1082, 4-amino-5-fluoro-1-((2S,3S,4S,5S)-3-hydroxy-4,5-bis(hydroxymethyl)-4-methyltetrahydrofuran-2-yl)pyrimidin-2(1H)-one; 4-amino-5-fluoro-1-((2R,3R,4S,5S)-3-hydroxy-4,5-bis(hydroxymethyl)-4-methyltetrahydrofuran-2-yl)pyrimidin-2(1H)-one]: the IC50 with 1A6, in the experiment on 786-O, in the experiment with Colo 829, in the experiment with DLD-1, in the experiment with HCC1143 and in the experiment with HL-60 was over 500 µM in each case. Moreover, the IC50 in the experiment on MCF7, in the experiment on MOLT-4, in the experiment on NCI H1395, in the experiment on NCI H2052, with PFSK-1 and in the experiment on ZR-75-1 was over 500 µM in each case.

In the case of `CCOC(=O)C1(C)[C@@H](CO)O[C@H](n2cnc3c(NN)nc(NN)nc32)[C@@H]1O` (some centres unmarked) [LCB-1086], the IC50 with 1A6 was over 100 µM; with 22Rv1 it was over 100 µM; in the experiment with 786-O, over 100 µM; in the experiment with BxPC-3, 90 µM; in the experiment on Colo 829 it was over 100 µM; in the experiment on DLD-1, over 100 µM. The IC50 in the experiment with HCC1143, in the experiment with HCT 116, in the experiment with HL-60, in the experiment on MCF7, in the experiment on MOLT-4 and with NCI H1395 was over 100 µM throughout. Also, the results for the half-inhibitory concentration (IC50) in the experiment with OVCAR3, in the experiment on PFSK-1 and in the experiment with ZR-75-1 were over 100 µM, 98 µM and over 100 µM, respectively.

For `C[C@]1(C(N)=O)[C@H](O)[C@@H](n2ccc(N)nc2=O)O[C@@H]1CO` [LCB-1087, (2S,3S,4S,5S)-5-(4-amino-2-oxopyrimidin-1(2H)-yl)-4-hydroxy-2-(hydroxymethyl)-3-methyltetrahydrofuran-3-carboxamide], the IC50 with 1A6, with 22Rv1, in the experiment with 786-O, in the experiment on BxPC-3, in the experiment on Colo 829 and in the experiment on DLD-1 was over 500 µM each time. In addition, the 50% inhibitory concentration (IC50) in the experiment with HCC1143, in the experiment on HCT 116, in the experiment with HL-60, in the experiment on MCF7, in the experiment on MOLT-4 and in the experiment with NCI H1395 was over 500 µM each time. Also, the half-inhibitory concentration (IC50) with OVCAR3, in the experiment with PFSK-1 and with ZR-75-1 was over 500 µM throughout.

Consider `C[C@]1(CO)C(O)[C@H](n2ccc(N)nc2=O)O[C@@H]1CO` (some centres unmarked) [compound 1056], for which the IC50 in the experiment on 1A6, with 786-O, in the experiment on BxPC-3, in the experiment with Colo 829, in the experiment with DLD-1 and in the experiment on HCC1143 was over 500 µM throughout. The IC50 in the experiment with HCT 116 is over 500 µM; in the experiment with HL-60, over 500 µM; in the experiment with MCF7, over 500 µM; in the experiment with NCI H1395 it was 440 µM; in the experiment on NCI H2052, over 500 µM; with OVCAR3 it was over 500 µM. For the same compound, the IC50 in the experiment on PFSK-1 and in the experiment with ZR-75-1 was over 500 µM in each case.

As usually defined, the IC50 is the midpoint of a concentration-inhibition curve. Read a high IC50 as weaker potency in that assay.

The values above are taken from patent US8846636B2, “Nucleoside analogues with quaternary carbon stereogenic centers and methods of use” (LCB Pharma Inc., priority 2008, dated 2014).
